Experimental data published in US9329192B2, “Polymer-coupled peptidases” (SENOVA GESELLSCHAFT FUR BIOWISSENSCHAFT UND TECHNIK MBH, priority 2010, dated 2016).

Test system: heparin in combination with antithrombin of plasma
Experiment: Influence of heparin in plasma on amidolytic activity, chromogenic thrombin assay
Assay type: biochemical
Settings: increasing concentrations of heparin in citrated plasma, substrate H-D-Chg-Ala-Arg-pNA
Method: The influence of heparin (Sigma, H-3393) on the amidolytic activity of PEG 5 kD-thrombin conjugate in plasma was compared with its influence on the amidolytic activity of unmodified thrombin using the chromogenic assay for quantitative determination of direct thrombin inhibitors (Example 5): 15 μl of a plasma sample (citrated plasma) were added to 50 μl chromogenic substrate (H-D-Chg-Ala-Arg-pNA, JenAffin GmbH, 3 mM in 0.05M Tris/HCl, 0.1M NaCl, pH 8.0 at 37° C.). Chromogenic reaction was started by addition of 100 μl PEG 5 kD-thrombin conjugate or thrombin, respectively. Increase in optical density (release of p-nitroaniline by cleavage of the chromogenic substrate) was recorded at 405 nm using the measurement device TC4+ (TECO GmbH).

| Substance | influence of heparin on amidolytic activity |
| --- | --- |
| PEG 5 kD-thrombin conjugate: bovine factor IIa (thrombin) coupled with methoxy polyethylene glycol (PEG)-5,000 p-nitrophenyl carbonate | does not influence amidolytic activity |
| thrombin: bovine factor IIa (thrombin, EC 3.4.21.5, Kordia), unmodified | inhibit amidolytic activity |
